{"source": "patent US6416585B1", "about": "“Method for crystallizing polyols and sugars” (Vomm Chemipharma S.r.l., priority 1999, dated 2002)", "assay": "solubility of the crystallized granular sorbitol compared with the prior art", "type": "physicochemical", "details": "sorbitol granules of Example 1 after two hours long maturation; in comparison with the prior art", "data": [{"smiles": "OC[C@@H](O)[C@@H](O)[C@H](O)[C@@H](O)CO", "note": "[sorbitol granules, sorbitol]", "values": [{"measurement": "solubility", "result": "definitely improved"}]}]}
